Data taken from patent publication US10231956B2, “3-(1H-pyrrolo[3,2-C]pyridin-2-YL)-1 H-pyrazolo[4,3-B]pyridines and therapeutic uses thereof” (Samumed, LLC, priority 2015, dated 2019).

What was measured:
Assay type in all cases: cell-based
SW480 colon cancer cells = assay: Cell viability assay (CellTiter-Blue) in SW480 colon cancer cells; details: Homo sapiens; for EC50: 96 h, four days, CellTiter-Blue; for inhibition at 10 µM: given for EC50 >10 μM, read-out: percent inhibition at 10 μM
Experimental: Representative compounds were screened using the following assay procedure to assess the effect on cell viability as described below.
Each compound was dissolved in DMSO as a 10 mM stock and used to prepare compound source plates. Serial dilution (1:3, 8-point dose-response curves from 10 μM to 0.0045 μM) and compound transfer was performed using the ECHO 550 (Labcyte, Sunnyvale, Calif.) into 96-well clear bottom, black-walled plates (Corning-Costar).
Approximately 2×10^3 SW480 colon cancer cells were seeded into each well and allowed to incubate in the presence or absence of compound for four days at 37° C./5% CO2. Eight replicates of DMSO-treated cells served as controls and cells treated with compound were performed in duplicate.
After incubation, 20 μL of CellTiter-Blue (Promega) was added to each well allowed to incubate for approximately 3 hours. This reagent was a buffered solution which contains resazurin, metabolically active cells were able to reduce rezarurin (blue) into resorufin (pink) which was highly fluorescent. This measured fluorescence was used as a readout for cell viability.
After incubation, the plates were read at Ex 560 nm Em 590 nm (Cytation 3, BioTek). Dose-response curves were generated and EC50 concentration values were calculated using non-linear regression curve fit in the GraphPad Prism (San Diego, Calif.) or Dotmatics' Studies Software (Bishops Stortford, UK). For EC50 of >10 μM, the percent inhibition at 10 μM is provided.

IL-6 = IL-6 inhibition in LPS-stimulated THP-1 cells (HTRF); details: Homo sapiens; for EC50: LPS 500 ng/mL, 22 hours, IL6 HTRF; for inhibition at 10 µM: given for EC50 >10 μM, LPS, IL6, 10 μM, read-out: percent inhibition at 10 μM
Experimental: Human Monocyte Cell Culture: Human monocyte cell line (THP-1 cells; Catalog # TIB-202, ATCC, Manassas, Va.) were cultured in Roswell Park Memorial Institute (RPMI) 1640 Medium (Catalog #21870-100, Buffalo, N.Y.) with 1% L-glutamine, 1% HEPES, 1% Sodium Pyruvate, 2% Sodium Bicarbonate supplemented with 100 units/mL penicillin, 50 μg/mL streptomycin, 2-mercaptoethanol (0.05 mM) [basal medium] and 10% fetal bovine serum (Catalog #16140089, Life Technologies, Carlsbad, Calif.) at 37° C. and 5% CO2.
Compound Screening: THP-1 cells were cultured in basal media with 1% FBS for 24 hours before the start of the assay. Each compound was dissolved in DMSO as a 10 mM stock and used to prepare compound source plates. Serial dilution (1:3, 10-point dose-response curves starting from 1 μM) and compound transfer was performed using the ECHO 550 (Labcyte, Sunnyvale, Calif.) into 384-well white low volume assay plates (Greiner Bio-One) with appropriate DMSO backfill for a final DMSO concentration of 0.1%. THP-1 cells were plated at 5000 cells/well in the 384-well plates and incubated at 37° C. for 2 h. 500 ng/mL of LPS was added after 2 hours and cells were incubated for another 22 hours at 37° C. Plates were spun in a centrifuge for 1 minute at 10,000 rpm and a mixture of anti-IL6 XL665, and anti-IL6 Cryptate diluted in reconstitution buffer (Cisbio Inc.) was added to each well. Following incubation for 3 hrs at room temperature, Homogeneous Time-Resolved Fluorescence (HTRF) was measured using the Envision (Perkin Elmer) at 665 nm and […]. The ratio of fluorescence at 665 nm to 620 nm was used as a readout for IL6 quantification. All samples were processed in duplicate. Readings were normalized to DMSO treated cells and normalized activities were utilized for EC50 calculations using the dose-response log (inhibitor) vs. response-variable slope (four parameters) nonlinear regression feature available in GraphPad Prism 5.0 (or Dotmatics). For EC50 of >10 μM, the percent inhibition at 10 μM is provided.

[1] = test system: primary human mesenchymal stem cells (hMSCs); assay: Induction of chondrogenesis in primary human mesenchymal stem cells (nodule count); details: 144 h, 6 days; for Emax: TGF-β3 10 ng/mL as positive control, read-out: Max. Activity as % TGF-β3 activity; for EC50: concentration required to induce 50% levels of chondrogenesis vs TGF-β3, read-out: Conc (nM) of 50% TGF-β3 activity
Experimental: Representative compounds were screened using primary human mesenchymal stem cells (hMSCs) to determine their ability to induce chondrogenesis (process by which cartilage is developed).
Human Mesenchymal Stem Cell Culture: Primary human mesenchymal stem cells (hMSCs) were purchased from Lonza (Walkersville, Md.) and expanded in Mesenchymal Stem Cell Growth Media (Lonza). Cells between passage 3 and 6 were used for the experiments.
Compound Screening: Each compound was dissolved in DMSO as a 10 mM stock and used to prepare compound source plates. Serial dilution (1:3, 6-point dose-response curves from 2700 nM to 10 nM) and compound transfer was performed using the ECHO 550 (Labcyte, Sunnyvale, Calif.) into 96-well clear bottom assay plates (Greiner Bio-One) with appropriate DMSO backfill for a final DMSO concentration of 0.03%. hMSCs were plated at 20,000 cells/well in 250 μL/well Incomplete Chondrogenic Induction Medium (Lonza; DMEM, dexamethasone, ascorbate, insulin-transferrin-selenium [ITS supplement], gentamycin-amphotericin [GA-1000], sodium pyruvate, proline and L-glutamine). TGF-β3 (10 ng/mL) was used as a positive control for differentiation while negative control wells were treated with 75 nL DMSO for normalization and calculating EC50 values. Cells were incubated at 37° C. and 5% CO2 for 6 days. To image chondrogenic nodules, the cells were fixed using 4% formaldehyde (Electron Microscopy Sciences), and stained with 2 μg/mL Rhodamine B (Sigma-Aldrich) and 20 μM Nile Red (Sigma-Aldrich) [Johnson K., et. al, A Stem Cell-Based Approach to Cartilage Repair, Science, (2012), 336(6082), 717-721]. The nodules imaged (4 images per well at 4× magnification) by excitation at 531 nm and emission at 625 nm and quantified using the CellInsight CX5 (Thermo Scientific). Number of nodules in each well was normalized to the average of 3 DMSO treated wells on the same plate using Excel (Microsoft Inc.). The normalized averages (fold change over DMSO) of 3 replicate wells for each compound concentration were calculated. Due to solubility limitations of some of the compounds, curve fitting was incomplete leading to inaccurate EC50 determinations.
Using TGF-β3 as a positive control, the concentration of representative compounds required to induce 50% levels of chondrogenesis is reported. In addition, the maximum activity of each compound and the respective dose that each compound reached maximum chondrogenesis activity is reported.

Structure (SMILES) | EC50 (SW480 colon cancer cells) [µM] | EC50 (IL-6) [µM] | EC50 [1] [nM] | inhibition at 10 µM (SW480 colon cancer cells) [%] | Emax [1] [%] | inhibition at 10 µM (IL-6) [%]
O=C(Nc1cncc(-c2ccc3[nH]nc(-c4cc5c(-c6cccc(F)c6)nccc5[nH]4)c3n2)c1)C1CCCCC1 [Compound 23, N-(5-(3-(4-(3-Fluorophenyl)-1H-pyrrolo[3,2-c]pyridin-2-yl)-1H-pyrazolo [4,3-b]pyridin-5-yl)pyridin-3-yl)cyclohexanecarboxamide] | 0.505 | > 10 |  |  |  | 10.6
CC(C)CC(=O)Nc1cncc(-c2ccc3[nH]nc(-c4cc5c(-c6ccccc6F)nccc5[nH]4)c3n2)c1 [Compound 58, N-(5-(3-(4-(2-Fluorophenyl)-1H-pyrrolo[3,2-c]pyridin-2-yl)-1H-pyrazolo [4,3-b]pyridin-5-yl)pyridin-3-yl)-3-methylbutanamide] | 0.37 | 0.074 |  |  | 36 | 
Fc1ccccc1-c1nccc2[nH]c(-c3n[nH]c4ccc(-c5cncnc5)nc34)cc12 [Compound 83, 3-(4-(2-Fluorophenyl)-1H-pyrrolo[3,2-c]pyridin-2-yl)-5-(pyrimidin-5-yl)-1H-pyrazolo[4,3-b]pyridine] | > 10 | 0.061 |  | 27.9 |  | 
CC(C)CC(=O)Nc1cncc(-c2ccc3[nH]nc(-c4cc5c(N6CCN(C)CC6)nccc5[nH]4)c3n2)c1 [Compound 226, 3-Methyl-N-(5-(3-(4-(4-methylpiperazin-1-yl)-1H-pyrrolo[3,2-c]pyridin-2-yl)-1H-pyrazolo[4,3-b]pyridin-5-yl)pyridin-3-yl)butanamide] | > 10 | 3.14 |  | 37.8 |  | 
CN1CCN(c2nccc3[nH]c(-c4n[nH]c5ccc(-c6cncc(NC(=O)c7ccccc7)c6)nc45)cc23)CC1 [Compound 235, N-(5-(3-(4-(4-Methylpiperazin-1l-yl)-1H-pyrrolo[3,2-c]pyridin-2-yl)-1H-pyrazolo[4,3-b]pyridin-5-yl)pyridin-3-yl)benzamide] | > 10 | 1 |  | 29.1 |  | 
c1csc(-c2nccc3[nH]c(-c4n[nH]c5ccc(-c6ccncc6)nc45)cc23)c1 [Compound 354, 5-(Pyridin-4-yl)-3-(4-(thiophen-2-yl)-1H-pyrrolo[3,2-c]pyridin-2-yl)-1H-pyrazolo[4,3-b]pyridine] | 2.82 | > 10 |  |  |  | 43.5
CN1CCN(c2nccc3[nH]c(-c4n[nH]c5ccc(-c6cncc(NC(=O)CC7CCNCC7)c6)nc45)cc23)CC1 [Compound 641, N-(5-(3-(4-(4-Methylpiperazin-1l-yl)-1H-pyrrolo[3,2-c]pyridin-2-yl)-1H-pyrazolo[4,3-b]pyridin-5-yl)pyridin-3-yl)-2-(piperidin-4-yl)acetamide] | > 10 | > 10 |  | 16.3 |  | 20.6

Further lines, with some results ahead:

EC50 (SW480 colon cancer cells) [µM] | EC50 (IL-6) [µM] | EC50 [1] [nM] | Structure (SMILES) | inhibition at 10 µM (SW480 colon cancer cells) [%] | Emax [1] [%] | inhibition at 10 µM (IL-6) [%]
> 10 | 0.051 |  | Fc1cccc(-c2nccc3[nH]c(-c4n[nH]c5ccc(-c6cccnc6)nc45)cc23)c1 [Compound 4, 3-(4-(3-Fluorophenyl)-1H-pyrrolo[3,2-c]pyridin-2-yl)-5-(pyridin-3-yl)-1H-pyrazolo[4,3-b]pyridine] | 25 | 45 | 
0.483 | 0.104 | 2700 | CN(C)c1cncc(-c2ccc3[nH]nc(-c4cc5c(-c6cccc(F)c6)nccc5[nH]4)c3n2)c1 [Compound 7, 5-(3-(4-(3-Fluorophenyl)-1H-pyrrolo[3,2-c]pyridin-2-yl)-1H-pyrazolo[4,3-b]pyridin-5-yl)-N,N-dimethylpyridin-3-amine] |  | 153 | 
1.14 | 9.37 |  | Fc1cccc(-c2nccc3[nH]c(-c4n[nH]c5ccc(-c6cncc(CN7CCCCC7)c6)nc45)cc23)c1 [Compound 15, 3-(4-(3-Fluorophenyl)-1H-pyrrolo[3,2-c]pyridin-2-yl)-5-(5-(piperidin-1-ylmethyl)pyridin-3-yl)-1H-pyrazolo[4,3-b]pyridine] |  | 48 | 
4.47 | > 10 |  | Cc1ccncc1-c1ccc2[nH]nc(-c3cc4c(-c5ccc(F)cc5)nccc4[nH]3)c2n1 [Compound 33, 3-(4-(4-Fluorophenyl)-1H-pyrrolo[3,2-c]pyridin-2-yl)-5-(4-methylpyridin-3-yl)-1H-pyrazolo[4,3-b]pyridine] |  |  | 31.3
0.177 | > 10 |  | O=C(Nc1cncc(-c2ccc3[nH]nc(-c4cc5c(-c6ccc(F)cc6)nccc5[nH]4)c3n2)c1)c1ccccc1 [Compound 39, N-(5-(3-(4-(4-Fluorophenyl)-1H-pyrrolo[3,2-c]pyridin-2-yl)-1H-pyrazolo [4,3-b]pyridin-5-yl)pyridin-3-yl)benzamide] |  |  | 3.3
0.516 | 0.121 | 900 | Fc1ccc(-c2nccc3[nH]c(-c4n[nH]c5ccc(-c6cncc(CN7CCC(F)(F)C7)c6)nc45)cc23)cc1 [Compound 54, 5-(5-((3,3-Difluoropyrrolidin-1-yl)methyl)pyridin-3-yl)-3-(4-(4-fluorophenyl)-1H-pyrrolo[3,2-c]pyridin-2-yl)-1H-pyrazolo[4,3-b]pyridine] |  | 106 | 
> 10 | 0.421 |  | Nc1cncc(-c2ccc3[nH]nc(-c4cc5c(-c6ccncc6)nccc5[nH]4)c3n2)c1 [Compound 115, 5-(3-(4-(Pyridin-4-yl)-1H-pyrrolo[3,2-c]pyridin-2-yl)-1H-pyrazolo[4,3-b]pyridin-5-yl)pyridin-3-amine] | 5.4 |  | 
1.36 | > 10 |  | Fc1cccc(-c2nccc3[nH]c(-c4n[nH]c5ccc(-c6cncc(OCc7ccccc7)c6)nc45)cc23)c1 [Compound 518, 5-(5-(Benzyloxy)pyridin-3-yl)-3-(4-(3-fluorophenyl)-1H-pyrrolo[3,2-c]pyridin-2-yl)-1H-pyrazolo[4,3-b]pyridine] |  |  | 27.5
